Source: US12358859B2, “Series of compounds for treatment of skin diseases and other conditions” (Unigen, Inc., priority 2018, dated 2025)
Read-outs that look alike come from different tables or passages of the source.

What was measured:
[1] = system: murine melanoma cells B16-F1; test: Cell viability, tetrazolium reduction assay; type: cell-based
Description: (§1) All test compounds were initially dissolved in 100% DMSO at a concentration of 400 mM. Then, 6 μL of 400 mM test compounds were added to 1.2 mL of the cell growth media giving a final concentration of 2 mM for the test compound and concentration of 0.5% for DMSO. The compounds were centrifuged for 1 h at 20,000×g. Supernatants (1 mL) were collected and filtered through sterile 0.2 μm filters. The compounds were serially diluted in two-fold increments in the sterile cell growth media supplemented with 0.5% DMSO, thus keeping the concentration of DMSO constant for all samples. These serially diluted compounds were subsequently used as two-fold concentrated stock solutions in the melanin production and cell viability assays. Equal volumes of 2× compounds were mixed with media containing 2 nM α-MSH to give a final concentration of 1 nM α-MSH, 0.5% DMSO, and 1× concentration of test compounds.
Viability of cells was measured using standard tetrazolium reduction assay based on redox potential of live cells. Cells were seeded in a clear-bottom 96-well plate in RPMI 1640 media with Glutamax (Fisher Scientific, cat #61870036) at a density of 5,000 cells/well. Cells were treated with test compounds dissolved in 100 μL RPMI 1640 media and incubated for 48 hours at 37° C. in a humidified atmosphere of 95% air and 5% CO2.
After incubation, 20 μL of Aqueous One Solution were added to each well and the plate was returned to the incubator for 30 minutes. Conversion of tetrazolium was monitored by measuring absorbance of cell wells at 492 nm using a TECAN Genios plate reader.
(§2) More than 90% percent of the melanin produced by cultured melanoma cells is found in extra-cellular media. Therefore, at the end of the experiment melanin-containing media was collected and relative amounts of melanin were determined by absorption at 492 nm. Viability of cells was determined by a commonly used colorimetric procedure that is based on conversion of the tetrazolium compounds to colored formazan products (using Promega's CellTiter96 AqueousOne assay). Dehydrogenase enzymes in metabolically active cells accomplish this conversion, and the amount of formazan product is directly proportional to the number of living cells in culture. Mean (n=2) absorption of wells containing no cells was subtracted as blanks. The results were computed as percent of wells that contained the cells but no test compounds.

[2] = system: murine melanoma cells B16-F1; test: Melanin production by murine melanoma cells B16-F1; type: cell-based; settings: Mus musculus, B16-F1, 1 nM α-MSH, 48 hours
Description: Selected compounds were then tested for the ability to suppress melanin production by the murine melanoma cells B16-F1 as detailed below.
Murine melanoma cells B16-F1 were purchased from the ATCC (Cat #CRL-6323). Cell Titer96 AqueousOne Solution was purchased from Promega (Cat #G3582). 0.2 μm pore size, low protein binding filters were purchased from PALL Life Sciences. (Cat #PN4454).
Alpha-MSH was purchased from the Sigma Aldrich (Cat #M4135-1MG). All tissue culture reagents were purchased from VWR (phenol-red-free DMEM, cat #12001-630, L-glutamine, cat #12001-698) and Fisher Scientific (Trypsin-EDTA, cat #25-200-056).
The B16-F1 cells were maintained in cell growth media (DMEM/High Glucose supplemented with glutamine, 10% fetal bovine serum, 50 units/ml penicillin, and 50 units/mL of streptomycin) at 37° C. in a humidified atmosphere of 95% air and 5% CO2.
as §1
B16-F1 cells were seeded into the wells of clear-bottom 24-well plates at 50,000 cells per well, in 0.5 mL of cell growth media. On the following day, 0.5 mL of freshly prepared test compounds containing α-MSH were added to the wells. The cells were maintained at 37° C. in a humidified atmosphere of 95% air and 5% CO2 for 48 hours. At the end of the incubation period, melanin-containing conditioned media was removed from the cells and transferred to another plate. To measure melanin content the light absorbance of conditioned media was taken at 492 nm using a TECAN Genios plate reader.
as §2

[3] = molecular target: 5-lipoxygenase from potato; test: Lipoxygenase Inhibition Assay; type: biochemical; settings: read-out: Anti-inflammatory (IC50) 5-LOX
Description: One of the most important pathway involved in the inflammatory response is produced by non-heme, ion-containing lipoxygenases (5-LOX, 12-LOX and 15-LOX) which catalyze the oxidation of fatty acids such as AA to produce the hydoperoxides 5-, 12- and 15-HEPTE, which are then converted to leukotrienes. A Lipoxygenase Inhibition Assay was carried out using commercial kit from Cayman Chemical (cat #760700, 5-lipoxygenase from potato, cat #60400). The test article and positive control were dissolved in 1% DMSO. 90 μL of diluted potato lipoxygenase enzyme and 10 μL inhibitor were added to a flat-bottom clear 96-well microplate. The plate was pre-incubated for five minutes at room temperature. The reaction was initiated by the addition of 10 μL linoleic acid substrate. The plate was then placed on a shaker for 10 minutes at room temperature. 100 μL Chromogen solution was added to each well and the plate was shaken again for five minutes. The absorbance was read at 492 nm using a TECAN Genios plate reader. The inhibitor concentration vs. % of inhibition was plotted and the IC50 determined.

[4] = FIGS. 2-8, read-out: IC50, inhibition in the production of melanin
[5] = Tables 1-3, read-out: MELANIN PRODUCTION

Compound | CELL VIABILITY ([1]; 48 hours, Tables 1-3) | LD50, cell viability ([1]; mouse, 48 h) | IC50 [2, 4] | IC50 [2, 5] | IC50 [3] | CELL VIABILITY ([1]; mouse, 48 h)
CC(C)=CCCC(C)=Cc1ccc(O)cc1 (mixture of isomers) [Compound 1, (E/Z)-4-(2,6-dimethylhepta-1,5-dienyl)phenol] | 269 µM | 269 µM | 158 µM | 158 µM | 90 µM | 
CC(C)=CCC/C(C)=C/c1cc(O)cc(O)c1 [Compound 4, (E/Z)-5-(2,6-dimethylhepta-1,5-dienyl)benzene-1,3-diol] |  |  | 72 µM | 72 µM | 317 µM | 127 µM
CC(C)=CCCC(C)/C=C/c1ccc(O)cc1 (centres unmarked) [Compound 5, (E)-4-(3,7-dimethylocta-1,6-dienyl)phenol] |  |  |  | 72 µM | 50 µM | 50 µM
CC(C)=CCCC(C)/C=C/c1ccc(O)cc1O (centres unmarked) [Compound 6, (E)-4-(3,7-dimethylocta-1,6-dienyl) benzene-1,3-diol] | 233 µM | 233 µM | 9 µM | 9 µM | 307 µM | 
CC(C)=CCCC(C)/C=C/c1cc(O)cc(O)c1 (centres unmarked) [Compound 7, (E)-5-(3,7-dimethylocta-1,6-dienyl) benzene-1,3-diol] | 152 µM | 152 µM | 97 µM | 97 µM | 143 µM | 
CC(C)=CCCC(C)C/C=C\c1cc(O)cc(O)c1 (centres unmarked) [Compound 15, (Z)-5-(4,8-dimethylnona-1,7-dienyl) benzene-1,3-diol] |  |  | 74 µM | 158 µM | 90 µM | 269 µM
